We go through eight compounds from PubChem BioAssay (NCI).

“And” between values parts separate entries of the source, which are not always exact repeats. Equal entries are not always repeated.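 In this assay, cells in 96-well plates receive the compound at five concentrations for 48 hours. Endpoints are linearly interpolated between the surrounding concentrations. Abbreviation: GI50, concentration required for 50% inhibition of growth. TGI marks complete inhibition of growth.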 Where a SMILES comes first, the peptide text is derived from it. [ ]: non-standard residue; d: D form. 2Nal = N[CH](Cc1ccc2ccccc2c1)C(=O)O

Holding throughout (test): NCI-60 cell line screen, 48 h
In assay [1] the test system is 786-0 renal.
Assay [2] concerns A498 renal.
The test system of assay [3] is ACHN renal.
Assay [4] concerns HCT-116 colon.
In assay [5] the test system is HT29 colon.
The test system of assay [6] is KM12 colon.
The test system of assay [7] is NCI-H460 lung.
The subject of assay [8] is NCI/ADR-RES ovarian.
The subject of assay [9] is SF-295 CNS.
Assay [10] deals with SR leukemia.

On to `CO[C@@H]1[C@H]2[C@@H](C)c3ccoc3C[C@@H]2[C@@]2(C)CC[C@H](OC(=O)c3ccccc3)[C@](C)(C(=O)O)[C@]2(O)[C@@H]1OC(=O)c1ccccc1`, for which the GI50 is 15.8 µM in assay [1]; 0.941 µM in assay [2]; 7.98 µM in assay [3]; 8.89 µM in assay [4]; 13.5 µM in [5]; 8.83 µM in assay [6]. Also, the GI50 in assay [7] was 13.4 µM; in assay [8], 11.7 µM; in assay [9], 10.3 µM; in assay [10], 10.9 µM. In addition, the TGI in [1] is over 50 µM; in assay [2], 7.67 µM; in [3], 18.9 µM; in assay [4] it was 15.8 µM; in assay [5], over 50 µM; in assay [6], 33.5 µM. Besides, the TGI is over 50 µM in assay [7], 35.3 µM in [8], 41.4 µM in assay [9] and over 50 µM in [10].

For the compound `CCCCCCN(C)Cc1ccc(OCCOc2ccc(CN(C)CCCCCC)cc2)cc1`, the GI50 in [1] is 1.44 µM; in assay [2], 1.24 µM; in assay [3] it was 1.62 µM; in assay [4], 1.01 µM; in assay [5], 0.375 µM; in assay [6] it was 1.47 µM. The GI50 is 1.35 µM in assay [7], 1.38 µM in [8], 1.23 µM in assay [9] and 1.04 µM in assay [10]. Further, the TGI in assay [1] is 2.8 µM; in assay [2], 3.17 µM; in assay [3], 3.63 µM; in assay [4], 2.21 µM; in assay [5], 1.53 µM; in [6] it was 2.84 µM. Further, the TGI is 2.99 µM in assay [7], 3.16 µM in assay [8], 2.76 µM in [9] and 11.6 µM in [10].

As for `CCOC(=O)c1cc(-c2ccc(OC)c(OC)c2)[nH]c1N/N=C/c1c(Cl)cccc1Cl`, the GI50 in assay [1] was 2.77 µM; in assay [2] it was 1.03 µM; in [3], 3.23 µM; in assay [4], 1.39 µM; in [5], 0.913 µM; in assay [6], 0.636 µM. Further, the GI50 in [7] is 1.35 µM; in assay [8], 1.15 µM; in assay [9] it was 0.461 µM; in assay [10], 0.41 µM. For the same compound, the TGI turned out to be 12.3 µM in assay [1]; 7.77 µM in assay [2]; 16.2 µM in assay [3]; 5.44 µM in assay [4]; 6.28 µM in [5]; 9.98 µM in [6]. Moreover, the TGI in assay [7] was over 35.9 µM; in assay [8] it was 4.53 µM; in [9], 8.31 µM; in [10], 1.93 µM.

`CC(C)C(NC(=O)C(CCCCN)NC(=O)C(Cc1c[nH]c2ccccc12)NC(=O)C(Cc1ccc(O)cc1)NC(=O)C(CS)NC(=O)C(N)Cc1ccc2ccccc2c1)C(=O)NC(CS)C(=O)NC(C(N)=O)C(C)O` (centres undefined) (H-[2Nal]CYWKVCT-NH2; configuration not given here): the GI50 in [1] is over 100 µM; in [2], over 100 µM; in [3], over 100 µM; in assay [4], 2.52 µM; in assay [5] it was over 100 µM; in assay [6], over 100 µM. For the same compound, the GI50 in assay [7], in assay [9] and in assay [10] was over 100 µM each time. The TGI in assay [1] is over 100 µM; in [2], over 100 µM; in [3] it was over 100 µM; in assay [4], > 12.5 µM and 10.9 µM; in assay [5] it was over 100 µM; in assay [6] it was over 100 µM. In addition, the TGI in [7] is over 100 µM; in [8], over 12.5 µM; in assay [9], over 100 µM; in [10], over 100 µM.

Turning to `COC(=O)C1=C(C(=O)OC)C2OC1c1cc3ccccc3cc12`, the TGI is 3.29 µM in [1]; 36.7 µM in assay [2]; 3.03 µM in [3]; 4.29 µM in assay [4]; 20.4 µM in assay [5]; over 58.1 µM in [6]. Also, the TGI is 46.3 µM in [7], 30.7 µM in assay [8], 38.3 µM in assay [9] and 3.55 µM in assay [10].

As to `CCN(CC)CC(C)(C)C(=O)/C=C/c1ccc(/C=C/C(=O)C(C)(C)CN(CC)CC)cc1`, the TGI in assay [1] was determined as 0.411 µM; in assay [2] it was 3.49 µM; in [3], 3.09 µM; in [4] it was 0.74 µM; in assay [5] it was 0.534 µM; in [6], 2.16 µM. Moreover, the TGI in assay [7] is 0.755 µM; in [8] it was 6.59 µM; in assay [9] it was 2.54 µM; in [10] it was 0.758 µM.

Regarding `O=C(Nc1nc(-c2ccc(Cl)cc2)nc2c1sc(=S)n2-c1ccccc1)C(F)(F)F`, the GI50 in assay [1] was 1.67 µM; in [2], 1.77 µM; in assay [3], 1.81 µM; in [4], 2.63 µM; in [5], 3.73 µM; in [6] it was 4.89 µM. Further, the GI50 is 2.72 µM in assay [7], 3.58 µM in assay [8], 1.71 µM in assay [9] and 4.76 µM in assay [10]. Further, the TGI was 3.27 µM in [1]; 7.8 µM in [2]; 3.56 µM in assay [3]; 8.04 µM in [4]; over 100 µM in assay [5]; over 100 µM in assay [6]. Also, the TGI in assay [7] was determined as 7.26 µM; in [8], 19.3 µM; in assay [9] it was 4.01 µM; in [10] it was 20.1 µM.

For `O=C(Nc1cccc(Cl)c1)c1cc(N=Nc2ccc([N+](=O)[O-])cc2Cl)ccc1O`, the GI50 in assay [1] is 2.93 µM; in assay [2], 1.94 µM; in assay [3] it was 2.3 µM; in [4] it was 2.81 µM; in assay [5], 2.83 µM; in assay [6], 1.57 µM. Further, the GI50 in assay [7] was 2.74 µM; in assay [8], 2.27 µM; in [9] it was 1.49 µM; in assay [10], 1.6 µM. Also, the TGI in assay [1] was found to be 8.27 µM; in [2], 4.51 µM; in assay [3], 6.46 µM; in assay [4], 8.25 µM; in [5], 9.5 µM; in [6], 4.61 µM. Also, the TGI in assay [7] turned out to be 7.92 µM; in assay [8], 5.93 µM; in assay [9] it was 3.22 µM; in assay [10] it was 4.29 µM.
